Measurements as given in patent US6017520A, “Penetration enhancement of topically applied therapeutic formulations” (Block Drug Company, Inc., priority 1997, dated 2000).

Test: Penetration study, Bronaugh flow-through diffusion cell system (permeability coefficient Kp)
Settings: 0.5 percent ketoprofen in the presence of vitamin E

## CC(C(=O)O)c1cccc(C(=O)c2ccccc2)c1 (stereo not shown) [ketoprofen]
  penetration rate: greater than that of 1.0 percent ketoprofen without vitamin E
